{"source": "patent US6737383B1", "about": "“Herbicidal oxadiazolidines” (priority 1999, dated 2004)", "key": {"pigweed": {"test_system": "pigweed", "test": "Test B pre/postemergence pigweed", "format": "in vivo, Amaranthus retroflexus", "how_it_was_run": "(§1)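 Response is a visual 0-to-10 score relative to untreated plants, where 0 means no effect and 10 means complete control, taken twelve to sixteen days after application. Treatments went onto soil at planting and onto foliage of 1- to 4-leaf plants, using a surfactant-containing non-phytotoxic solvent.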"}, "rape": {"test_system": "rape", "test": "Test B pre/postemergence rape", "format": "in vivo, Brassica napus", "how_it_was_run": "as §1"}, "bermuda-grass": {"test_system": "bermuda-grass", "test": "Test D bermudagrass", "format": "in vivo, Cynodon dactylon", "settings": "Preemergence, 0 to 100 scale", "text": "Seeds, tubers, or plant parts of Alexandergrass (Brachiaria plantaginea), bermuda-grass (Cynodon dactylon), common pursiane (Portulaca oleracea), common ragweed (Ambrosia elatior), common groundsel (Senecio vulgaris), dallisgrass (Paspalum dilatatum), goosegrass (Eleusine indica), guineagrass (Panicum maximum), itchgrass (Rottboellia exaltata), Johnson grass (Sorghum halepense), large crabgrass (Digitaria sanguinalis), pitted morningglory (Ipomoea lacunosa), purple nutsedge (Cyperus rotundus), sandbur (Cenchrus echinatus), sourgrass (Trichachne insularis), Spanishneedles (Bidens bipinnata), surinam grass (Brachiaria decumbens) and tall mallow (Malva sylvestris) were planted into greenhouse pots of flats containing greenhouse planting medium. Plant species were grown in separate pots or individual compartments. Preemergence applications were made within one day of planting the seed or plant part.\nTest chemicals were formulated in a non-phytotoxic solvent mixture which included a surfactant and applied preemergence to the surface of the pot containing seeds in a sandy loam soil. Untreated control pots and treated pots were placed in the greenhouse for growth and visually evaluated for injury 14 to 21 days after herbicide application. Plant response ratings, summarized in Table C, are based on a 0 to 100 scale where 0 is no injury and 100 is complete control. A dash (−) response means no test result."}, "sugar beet": {"test_system": "sugar beet", "test": "Test B pre/postemergence sugar beet", "format": "in vivo, Beta vulgaris", "how_it_was_run": "as §1"}, "soybean": {"test_system": "soybean", "test": "Test B pre/postemergence soybean", "format": "in vivo, Glycine max", "how_it_was_run": "as §1"}, "[1]": {"settings": "Postemergence, Rate 62 g/ha, scale 0 to 10, 0 is no effect, 10 is complete control"}, "[2]": {"settings": "Postemergence, Rate 250 g/ha, scale 0 to 10, 0 no effect, 10 complete control"}, "[3]": {"settings": "Preemergence, Rate 31 g/ha, visual rating, scale 0 to 10 (0 no effect, 10 complete control)"}, "[4]": {"settings": "Preemergence, Rate 62 g/ha, scale 0 to 10, 0 is no effect, 10 is complete control"}, "[5]": {"settings": "Preemergence, Rate 125 g/ha, scale 0 to 10 (0 no effect, 10 complete control)"}, "[6]": {"settings": "Preemergence, Rate 250 g/ha, scale of 0 to 10 where 0 is no effect and 10 is complete control"}, "[7]": {"settings": "Rate 31 g/ha, Postemergence, scale 0 to 10"}, "[8]": {"settings": "Rate 125 g/ha, Postemergence, scale 0 to 10, 0 no effect, 10 complete control"}, "[9]": {"settings": "Rate 64 g/ha, 0 no injury, 100 complete control"}, "[10]": {"settings": "Postemergence, Rate 125 g/ha, scale of 0 to 10 where 0 is no effect and 10 is complete control"}, "[11]": {"settings": "Preemergence, Rate 62 g/ha, scale 0 to 10 (0 no effect, 10 complete control)"}, "[12]": {"settings": "Preemergence, Rate 125 g/ha, 0 is no effect, 10 is complete control"}, "[13]": {"settings": "Preemergence, Rate 250 g/ha, scale 0 to 10, 0 is no effect, 10 is complete control"}, "[14]": {"settings": "Preemergence, Rate 500 g/ha, scale 0 to 10 (0 no effect, 10 complete control)"}, "[15]": {"settings": "Rate 62 g/ha, Postemergence, scale of 0 to 10 where 0 is no effect and 10 is complete control"}, "[16]": {"settings": "Rate 250 g/ha, Postemergence, scale 0 to 10, 0 is no effect, 10 is complete control"}, "[17]": {"settings": "Rate 500 g/ha, Postemergence, scale 0 to 10"}}, "data": [{"smiles": "Cc1cccc(C)c1-n1c(=O)on(C(=O)N(c2ccc(F)cc2F)C(C)C)c1=O", "note": "[Compound 28]", "values": [{"measurement": "Redroot pigweed plant response rating", "setting": "pigweed; [1]", "value": 0}, {"measurement": "Redroot pigweed plant response rating", "setting": "pigweed; [2]", "value": 2}, {"measurement": "Redroot pigweed plant response rating", "setting": "pigweed; [3]", "value": 0}, {"measurement": "Plant response rating, Redroot pigweed", "setting": "pigweed; [4]", "value": 0}, {"measurement": "Plant response rating, Redroot pigweed", "setting": "pigweed; [5]", "value": 0}, {"measurement": "Plant response rating, Redroot pigweed", "setting": "pigweed; [6]", "value": 1}, {"measurement": "Redroot pigweed plant response rating", "setting": "pigweed; [7]", "value": 0}, {"measurement": "Redroot pigweed plant response rating", "setting": "pigweed; [8]", "value": 1}, {"measurement": "Rape plant response rating", "setting": "rape; [1]", "value": 0}, {"measurement": "Rape plant response rating", "setting": "rape; [2]", "value": 0}, {"measurement": "Rape plant response rating", "setting": "rape; [3]", "value": 0}, {"measurement": "Plant response rating, Rape", "setting": "rape; [4]", "value": 0}, {"measurement": "Plant response rating, Rape", "setting": "rape; [5]", "value": 0}, {"measurement": "Plant response rating, Rape", "setting": "rape; [6]", "value": 0}, {"measurement": "Rape plant response rating", "setting": "rape; [7]", "value": 0}, {"measurement": "Rape plant response rating", "setting": "rape; [8]", "value": 0}, {"measurement": "Plant response rating, Bermudagrass", "setting": "bermuda-grass; Rate 32 g/ha, 0 no injury, 100 complete control", "value": 85}, {"measurement": "Plant response rating, Bermudagrass", "setting": "bermuda-grass; [9]", "value": 100}, {"measurement": "Plant response rating, Bermudagrass", "setting": "bermuda-grass; Rate 125 g/ha, 0 no injury, 100 complete control", "value": 100}, {"measurement": "Plant response rating, Bermudagrass", "setting": "bermuda-grass; Rate 250 g/ha", "value": 100}, {"measurement": "Sugarbeets plant response rating", "setting": "sugar beet; [1]", "value": 1}, {"measurement": "Sugarbeets plant response rating", "setting": "sugar beet; [2]", "value": 1}, {"measurement": "Sugarbeets plant response rating", "setting": "sugar beet; [3]", "value": 0}, {"measurement": "Plant response rating, Sugarbeets", "setting": "sugar beet; [4]", "value": 0}, {"measurement": "Plant response rating, Sugarbeets", "setting": "sugar beet; [5]", "value": 0}, {"measurement": "Plant response rating, Sugarbeets", "setting": "sugar beet; [6]", "value": 0}, {"measurement": "Sugarbeets plant response rating", "setting": "sugar beet; [8]", "value": 1}, {"measurement": "Soybean plant response rating", "setting": "soybean; [1]", "value": 3}, {"measurement": "Soybean plant response rating", "setting": "soybean; [2]", "value": 3}, {"measurement": "Soybean plant response rating", "setting": "soybean; [3]", "value": 0}, {"measurement": "Plant response rating, Soybean", "setting": "soybean; [4]", "value": 0}, {"measurement": "Plant response rating, Soybean", "setting": "soybean; [5]", "value": 0}, {"measurement": "Plant response rating, Soybean", "setting": "soybean; [6]", "value": 0}, {"measurement": "Soybean plant response rating", "setting": "soybean; [8]", "value": 3}]}, {"smiles": "C=C(C)Cn1c(=O)on(C(=O)N(c2ccc(F)cc2)C(C)C)c1=O", "note": "[Compound 139]", "values": [{"measurement": "Redroot pigweed plant response rating", "setting": "pigweed; [10]", "value": 3}, {"measurement": "Redroot pigweed plant response rating", "setting": "pigweed; [11]", "value": 6}, {"measurement": "Redroot pigweed plant response rating (0 to 10 scale)", "setting": "pigweed; [12]", "value": 8}, {"measurement": "Redroot pigweed plant response rating", "setting": "pigweed; [13]", "value": 10}, {"measurement": "Redroot pigweed plant response rating", "setting": "pigweed; [14]", "value": 10}, {"measurement": "Redroot pigweed plant response rating", "setting": "pigweed; [15]", "value": 3}, {"measurement": "Plant response rating, Redroot pigweed", "setting": "pigweed; [16]", "value": 4}, {"measurement": "Redroot pigweed plant response rating", "setting": "pigweed; [17]", "value": 4}, {"measurement": "Rape plant response rating", "setting": "rape; [10]", "value": 2}, {"measurement": "Rape plant response rating", "setting": "rape; [11]", "value": 0}, {"measurement": "Rape plant response rating (0 to 10 scale)", "setting": "rape; [12]", "value": 0}, {"measurement": "Rape plant response rating", "setting": "rape; [13]", "value": 4}, {"measurement": "Rape plant response rating", "setting": "rape; [14]", "value": 9}, {"measurement": "Rape plant response rating", "setting": "rape; [15]", "value": 0}, {"measurement": "Plant response rating, Rape", "setting": "rape; [16]", "value": 2}, {"measurement": "Rape plant response rating", "setting": "rape; [17]", "value": 4}, {"measurement": "Plant response rating, Bermudagrass", "setting": "bermuda-grass; [9]", "value": 98}, {"measurement": "Sugarbeets plant response rating", "setting": "sugar beet; [10]", "value": 0}, {"measurement": "Sugarbeets plant response rating", "setting": "sugar beet; [11]", "value": 3}, {"measurement": "Sugarbeets plant response rating (0 to 10 scale)", "setting": "sugar beet; [12]", "value": 3}, {"measurement": "Sugarbeets plant response rating", "setting": "sugar beet; [13]", "value": 4}, {"measurement": "Sugarbeets plant response rating", "setting": "sugar beet; [14]", "value": 6}, {"measurement": "Sugarbeets plant response rating", "setting": "sugar beet; [15]", "value": 0}, {"measurement": "Plant response rating, Sugarbeets", "setting": "sugar beet; [16]", "value": 2}, {"measurement": "Sugarbeets plant response rating", "setting": "sugar beet; [17]", "value": 2}, {"measurement": "Soybean plant response rating", "setting": "soybean; [10]", "value": 2}, {"measurement": "Soybean plant response rating", "setting": "soybean; [11]", "value": 0}, {"measurement": "Soybean plant response rating (0 to 10 scale)", "setting": "soybean; [12]", "value": 0}, {"measurement": "Soybean plant response rating", "setting": "soybean; [13]", "value": 0}, {"measurement": "Soybean plant response rating", "setting": "soybean; [14]", "value": 2}, {"measurement": "Soybean plant response rating", "setting": "soybean; [15]", "value": 1}, {"measurement": "Plant response rating, Soybean", "setting": "soybean; [16]", "value": 4}, {"measurement": "Soybean plant response rating", "setting": "soybean; [17]", "value": 5}]}]}
